Laboratory results reported in publication PMC7806935, “Exosite inhibition of ADAMTS-5 by a glycoconjugated arylsulfonamide” (Scientific Reports, 2021).

Target: T1, ADAMTS-4 (Homo sapiens, UniProt O75173)
T1 construct: made in house
T1 sequence (O75173 213-837): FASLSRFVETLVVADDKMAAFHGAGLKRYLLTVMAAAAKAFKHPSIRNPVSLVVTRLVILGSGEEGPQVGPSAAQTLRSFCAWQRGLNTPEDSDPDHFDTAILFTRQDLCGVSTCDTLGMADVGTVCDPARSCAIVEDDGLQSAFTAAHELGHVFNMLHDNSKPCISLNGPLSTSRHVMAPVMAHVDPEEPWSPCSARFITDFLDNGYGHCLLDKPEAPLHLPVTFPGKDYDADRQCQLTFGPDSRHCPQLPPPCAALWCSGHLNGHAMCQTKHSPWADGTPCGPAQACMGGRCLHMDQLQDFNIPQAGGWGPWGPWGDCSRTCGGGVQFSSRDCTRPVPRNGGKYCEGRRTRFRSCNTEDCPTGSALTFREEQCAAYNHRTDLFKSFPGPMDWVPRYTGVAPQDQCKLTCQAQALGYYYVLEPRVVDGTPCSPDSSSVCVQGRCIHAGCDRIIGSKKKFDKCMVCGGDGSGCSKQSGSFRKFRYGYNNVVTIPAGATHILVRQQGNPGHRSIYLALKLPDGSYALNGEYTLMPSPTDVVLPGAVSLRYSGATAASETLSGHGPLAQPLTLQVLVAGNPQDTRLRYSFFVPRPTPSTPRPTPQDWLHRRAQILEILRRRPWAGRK
Test: QF peptide cleavage assay, ADAMTS-4
Assay type: biochemical
Conditions: 12-residue QF peptide substrate; mean ± SEM (n = 3); read-out: IC50 (μM) QF peptide ATS4
Protocol: All enzyme assays were conducted in TNC-B buffer (50 mM Tris–HCl, pH 7.5, 150 mM NaCl, 10 mM CaCl2, and 0.02% NaN3) at 37 °C. To avoid the formation of inhibitor aggregates, the detergent Brij-35 (0.05%) was added to the assay buffer. No aggregation was visually observed at concentrations up to 2 mM. The inhibitor stock solutions in DMSO (10 mM) were diluted at different concentrations in assay buffer and incubated with ADAMTS-4 or ADAMTS-5 for 2 h at 37 °C. Percent of inhibition was calculated from control reactions containing only DMSO. IC50 values were determined using the formula: vi/v0 = 1/(1 + [I]/IC50) where vi is the initial velocity of substrate cleavage in the presence of the inhibitor at concentration [I] and v0 is the initial velocity in the presence of an equal concentration (v/v) of DMSO.
QF peptide cleavage assays were conducted in 96-well black microtiter plates (Scientific Laboratories Supplies Ltd, Wilford, UK) using a Fluostar Omega microplate reader (BMG Labtech, Aylesbury, UK). The activity of ADAMTS-4 (1 nM) and -5 (5 nM) was monitored for 2 h using the fluorescent peptide substrates fluorescein 5(6)-carbonyl-Ala-Glu-Leu-[…]-Gly-Arg-Pro-Ile-Ser-Ile-Ala-Lys-N,N,N0,N0-tetramethyl-6-carboxyrhodamine-NH2 (FAM-AE ~ LQGRPISIAK-TAMRA, ADAMTS-4) and fluorescein 5(6)-carbonyl-Thr-Glu-Ser-Glu ~ Ser-Arg-Gly-Ala-Ile-Tyr-Lys-Lys-N,N,N0,N0-tetramethyl-6-carboxyrhodamine-NH2 (FAM-TESE ~ SRGAIYKK-TAMRA, ADAMTS-5) (custom-synthesized by Bachem, Bubendorf, Switzerland) with an excitation wavelength of 485 nm and an emission wavelength of 538 nm. Final substrate concentrations were 1 μM and 40 μM for ADAMTS-4 and -5, respectively. Fluorescence was expressed in relative fluorescence units (RFU) and normalized against a blank containing only buffer and substrate. Emission spectra were recorded at several concentrations of each compound to exclude auto-fluorescence and maximal inhibitor concentrations were selected accordingly.

IC50 [µM]	Structure (SMILES)
> 50	CCC(C)N(Cc1cn(CCCOC2OC(CO)C(O)C(O)C2NC(C)=O)nn1)S(=O)(=O)c1ccc(-c2ccccc2)cc1 (mixture of isomers) [Compound 4b]
> 50	CCC(C)N(Cc1cn(CCCOC(=O)c2ccccc2)nn1)S(=O)(=O)c1ccc(-c2ccccc2)cc1 (racemic) [Compound 6]
